Test results reported in patent publication US20260355176A1 (NICOVENTURES TRADING LIMITED, priority 2019, published 2026).
“Also recorded” adds a separate entry of the source.

What was measured:
[1] = Nicotine and benzoic acid octanol-water partitioning in unbuffered water; format: physicochemical
Procedure: The mobile phase was brought to pH 2.5 with H3PO4. The flow rate of the mobile phase was 1 mL/min, and the injection volume was 10 μL.

[2] = Nicotine octanol-water partitioning with various ion pairing agents and quantities (benzoate, octanoate, decanoate); format: physicochemical; conditions: pH 6.5, 1,000 ppm nicotine
Procedure: A pH probe was submerged in the resulting liquid and HCl (0.05 M) was added under stirring to bring the solution to pH 6.5. The flask weight was then brought up to 100 grams with RO water. […] Partitioning was performed by removing aliquots (10 mL) of each solution and placing into separate 20 ml scintillation vials. Octanol (10 ml) was added to each vial. The vials were then placed on a wrist action shaker for 20 minutes. Following agitation, the vials were allowed to separate for 30 min, and an aliquot (100 μl) of each octanol layer was removed and diluted with 900 μl octanol in 2 mL GC/MS vials.

O=C(O)c1ccccc1 [benzoic acid]
concentration in octanol ([1]; 1000 ppm nicotine, 1 molar equivalent sodium benzoate, unbuffered water): 19.2 ppm | benzoic acid molarity in octanol in terms of nicotine mass ([1]; calculated as ppm nicotine): 25.5 ppm

CCCCCCCCCC(=O)O [decanoic acid]
octanol-water partitioning, in words [2]: prone to becoming soapy during the vigorous mixing; also recorded: partition into octanol to an extent less than that expected by theory

CN1CCCC1c1cccnc1 (centres unmarked) [nicotine, reference compound]
% nicotine in octanol (FIG. 6) ([2]; 10 eq. octanoic acid): ~ 75% | % nicotine in octanol (FIG. 6) ([2]; benzoic acid at same concentration (10 eq.)): ~ 52%
